From PMC7717691, “Design, synthesis, and anticonvulsant effects evaluation of nonimidazole histamine H3 receptor antagonists/inverse agonists containing triazole moiety” (Journal of Enzyme Inhibition and Medicinal Chemistry, 2020)
“Also recorded” adds a separate entry of the source. Like-named read-outs stand apart in the source and are kept apart here.

Columns and labels:
PTZ [1] = conditions: cited from earlier work
MES [2] = conditions: cited from earlier work
MES-induced convulsions = MES-induced convulsions model; type: in vivo; conditions: mice; for protection against MES-induced convulsions (reduction or abolition of THLE): i.p.; for protection against MES-induced convulsions in different doses: Figure 7
Source text: Protection for the mice was defined as the reduction or abolition of the tonic hind limb extension (THLE) in the MES model in mice.
Ear stimulation with alternating current (0.2 s, 60 Hz, 50 mA) was used to induce the seizures in mice. The reduction or abolition of the hind limb tonic extension (THLE) of mice was considered protective against the MES-induced seizures[29]^,[48]. […]

PTZ-induced convulsions = PTZ-induced convulsions model; type: in vivo; conditions: mice, PTZ 85 mg/kg s.c.
Procedure: To investigate the anticonvulsive effects, all the target compounds (3a-3q) were screened in the MES-induced and PTZ-induced convulsion models in mice. Compounds were administered intraperitoneally (i.p.) to mice at dosage of 10 mg/kg in the both models. PIT and valproic sodium (VPA) were used as positive controls in the tests.
PTZ (85 mg/kg) was injected subcutaneously to induce seizures. […] The following are the specific meaning of graded scores: score 0 = normal, score 1 = eyelids or facial twitches, score 2 = agitation with body twisting, score 3 = myo-clonic jerks or rearing, score 4 = turn over into one side position or running violently, and score 5 = turn over into back position, limbs tonic extension, or die during the experiment period.

H3R [3] = biological target: T1, H3R (Homo sapiens, UniProt Q9Y5N1); assay: CRE-driven luciferase reporter gene assay, H3R antagonistic activity; type: cell-based; conditions: for % Antagonism 100 nM: 100 nM compound; for % Antagonism 100 nM / % Antagonism 1 μM: HEK-293 cells expressing human H3R, mean ± SD of three experiments; for % Antagonism 1 μM: 1 μM compound
T1 construct: expressed in transfected cells
Procedure: cAMP-response element (CRE) reporter gene assay has been extensively used to evaluate the efficacy of GPCR antagonists or agonists. […] Initially, compounds and positive controls were tested at two concentrations (100 nM and 1 µM) to obtain the preliminary investigation of their H3R antagonistic activities. In the assays, the antagonistic activities was positively correlated with the rise of the fluorescence value and indicated by the % antagonism. For the prominent compounds IC50 values were determined at additional assays.
Human thalamus poly-A RNA (Clontech, Palo Alto, CA, USA) was used to clone the hH3R gene by RT-PCR. DNA PCR primers were designed in the light of the reported human histamine receptor gene sequences (GenBank accession no.AF140538). HEK-293 cells were cultured and transfected for the luciferase assay. The detailed procedures were described in the previous publication.
Stable HEK-293 cells, which had been co-transfected with H3R and pCRE-Luc, were seeded in a 96-well plate overnight, and were grown to 90–95% confluence[43]^,[44]. Then the cells were treated with various concentrations of tested compounds in serum-free DMEM and incubated for 20 min. Cells were then stimulated with 100 nM Histamine in serum-free DMEM containing 2 µM Forskolin and incubated for 4 h at 37 °C. Firefly luciferase assay kits (Ken-real, Shanghai, China) were used to determine the luciferase activity.

H3R [4] = biological target: T1, H3R; assay: CRE-luciferase assay, H3R inverse agonist activity (forskolin-stimulated transfected HEK-293 cells); type: cell-based; conditions: 10 µM forskolin plus compound; seven concentrations; read-out: H3R inverse agonistic activity EC50
Procedure: The raise of luciferase activity after adding compound represented the inverse agonistic activity. The EC50 was calculated by seven concentrations.

intracellular cAMP = assay: Effect of compounds administrated alone on the level of intracellular cAMP; type: cell-based; conditions: compound alone; ANOVA followed by Dunnett's test; Figure 2
Source text: It is well known that H3R is a GPCR coupled with Gαi. When the ligand (histamine) binds to H3R, the dissociated Gαi inhibits the activity of adenylate cyclase (AC) and down-regulates the level of intracellular cAMP. In this CREs driven luciferase assay, when cells were pre-treated by H3R antagonists, the downregulation of cAMP would be inhibited, and the level of intracellular cAMP would regain to the initial level.

[5] = Rotarod test (neurotoxicity); type: in vivo; conditions: 10 and 20 mg/kg
Source text: To exclude the possibility that the anticonvulsant activity of 3m was connected with sedative effect, we carried out a rotarod test for 3m.

MES [6] = conditions: 10 mg/kg i.p.; ref not printed (Figure 1); cited from earlier work
PTZ [7] = conditions: 10 mg/kg i.p.; ref not printed (Figure 1); cited from earlier work
[8] = test system: human photosensitivity model; conditions: dose ranges of 30–60 mg, alone or in combination with other AEDs; cited from earlier work
[9] = 10 mg/kg, 30 min before stimulation, vs saline group

T1 sequence (Q9Y5N1 whole entry): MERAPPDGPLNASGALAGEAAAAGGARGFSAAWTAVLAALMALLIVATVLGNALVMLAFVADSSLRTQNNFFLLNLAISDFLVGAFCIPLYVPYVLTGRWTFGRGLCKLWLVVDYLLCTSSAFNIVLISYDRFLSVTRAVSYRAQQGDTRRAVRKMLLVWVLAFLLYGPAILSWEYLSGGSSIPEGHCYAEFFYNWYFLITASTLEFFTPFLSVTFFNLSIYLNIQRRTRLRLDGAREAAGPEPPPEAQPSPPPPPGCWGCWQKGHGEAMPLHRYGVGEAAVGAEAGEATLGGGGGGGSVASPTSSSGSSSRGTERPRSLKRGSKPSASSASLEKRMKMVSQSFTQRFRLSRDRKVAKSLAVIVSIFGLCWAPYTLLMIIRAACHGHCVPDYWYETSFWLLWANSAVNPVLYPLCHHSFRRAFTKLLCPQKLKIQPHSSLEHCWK

CCCCCCCOc1ccc2c(c1)-c1nncn1CCO2 [II]
PTZ (mice) (PTZ [1]; 30 mg/kg i.p.): protection
MES (mice) (MES [2]; 10 mg/kg i.p.): protection

CCCC(CCC)C(=O)O [VPA, Valproic acid, reference compound]
protection against MES-induced convulsions (reduction or abolition of THLE) (MES-induced convulsions; 300 mg/kg): potently
protection against PTZ-induced convulsions (PTZ-induced convulsions; 300 mg/kg i.p.): full protection

Clc1ccc(-c2nncn2-c2ccc(OCCCN3CCCCC3)cc2)cc1 [Compound 3m, 1-(3-(4-(3-(4-chlorophenyl)-4H-1,2,4-triazol-4-yl)phenoxy)propyl)piperidine]
% Antagonism 100 nM (H3R [3]): 201.12 ± 12.63%
% Antagonism 1 μM (H3R [3]): 203.92 ± 8.44%
IC50 (H3R [3]; CRE luciferase assay, HEK-293 cells, Table 1): 5.92 nM
protection against MES-induced seizures when co-treated with RAMH (MES-induced convulsions; 10 mg/kg i.p. plus RAMH 10 mg/kg i.p.): fully abrogated; also recorded: lost its original protective effect
protection against MES-induced convulsions (reduction or abolition of THLE) (MES-induced convulsions; [9]): moderate protection
protection against MES-induced convulsions in different doses (MES-induced convulsions): dose dependent
EC50 (H3R [4]): 129 nM
melting point: 165 to 167 °C
effect on the level of cAMP when treated alone (intracellular cAMP): no significant effects
neurotoxicity in rotarod test [5]: no neurotoxicity

S=C(NC1CCCCC1)N1CCC(c2cnc[nH]2)CC1 [Thioperamide]
PTZ (mice) (PTZ [1]; 7.5 & 15 mg/kg i.p.): protection
MES (mice) (MES [2]; 10 & 15 mg/kg i.p.): protection

Clc1ccc(CCCOCCCN2CCCCC2)cc1 [PIT, Pitolisant, reference compound]
% Antagonism 100 nM (H3R [3]): 54.16 ± 7.33%
% Antagonism 1 μM (H3R [3]): 246.29 ± 21.48%
protection against MES-induced convulsions (reduction or abolition of THLE) (MES-induced convulsions; [9]): moderately
protection against MES-induced convulsions (THLE) (MES-induced convulsions; 20 mg/kg): fully abrogate the tonic hind limb extension; also recorded: fully abrogate the THLE
protection against MES-induced convulsions in different doses (MES-induced convulsions): dose-dependently
protection against PTZ-induced convulsions (PTZ-induced convulsions; 10 mg/kg i.p.): failed to protect
MES (rats) (MES [6]): protection
PTZ (rats) (PTZ [7]): no protection
EEG profile in the human photosensitivity model [8]: favourable EEG profile in a dose-dependent manner
